Assay results: the NIST ThermoML archive (doi:10.1021/je400841s)

Conditions: 101.33 kPa, Liquid; for mass density: Vibrating tube method; for viscosity: Concentric cylinders viscometry; for electrical conductivity: impedancemetry (AC impedance bridge)

CCCCn1cc[n+](C)c1.O=S(=O)([O-])C(F)(F)F [1-butyl-3-methylimidazolium trifluoromethanesulfonate]
Conditions	electrical conductivity [S/m]	mass density [kg/m3]	viscosity [mPa·s]
297.98 K	–	1294.7	–
298.15 K	0.301	–	86.6
302.79 K	–	1291.3	–
303.15 K	0.378	–	–
313 K	–	1283.1	–
313.15 K	0.553	–	45.6
323.12 K	–	1275.2	–
323.15 K	0.763	–	31.6
333.12 K	–	1267.4	–
333.15 K	1.01	–	23
343.12 K	–	1259.8	–
343.15 K	1.29	–	17.2

CCn1cc[n+](C)c1.O=S(=O)([O-])C(F)(F)F [1-ethyl-3-methylimidazolium trifluoromethanesulfonate]
Conditions	electrical conductivity [S/m]	mass density [kg/m3]	viscosity [mPa·s]
293.15 K	–	1382.9	–
298.15 K	0.913	–	45.9
303.14 K	–	1374.6	–
313.14 K	–	1366.3	–
313.15 K	1.45	–	27.6
323.14 K	–	1358	–
323.15 K	1.74	–	20.2
333.14 K	–	1349.8	–
333.15 K	2.19	–	15.5
343.14 K	–	1341.7	–
343.15 K	2.6	–	12.3
353.14 K	–	1333.7	–

CCCCn1cc[n+](C)c1.COS(=O)(=O)[O-] [1-butyl-3-methylimidazolium methyl sulfate]
Conditions	electrical conductivity [S/m]	mass density [kg/m3]	viscosity [mPa·s]
298.08 K	–	1210.5	–
298.15 K	0.126	–	223
302.78 K	–	1207.6	–
303.15 K	0.16	–	–
312.49 K	–	1201.4	–
313.15 K	0.254	–	101
322.23 K	–	1195	–
323.15 K	0.382	–	64.3
332.16 K	–	1188.7	–
333.15 K	0.551	–	43.6
341.68 K	–	1182.9	–
343.15 K	0.757	–	31.1

CCn1cc[n+](C)c1.COS(=O)(=O)[O-] [1-ethyl-3-methylimidazolium methylsulfate]
Conditions	electrical conductivity [S/m]	mass density [kg/m3]	viscosity [mPa·s]
298.03 K	–	1282.1	–
298.15 K	0.602	–	74.3
303.15 K	0.723	–	–
312.67 K	–	1272.2	–
313.15 K	1.02	–	40.6
322.6 K	–	1265.8	–
323.15 K	1.39	–	28.8
332.35 K	–	1259.4	–
333.15 K	1.84	–	21.2
342.22 K	–	1252.9	–
343.15 K	2.34	–	16.1
